From patent US20060111289A1, “Compositions and methods of using Alpha-fetoprotein growth inhibitory peptides” (Serometrix, LLC,, priority 2004, published 2006)

How the values were obtained:
[1] = system: 6WI-1 mammary tumor cells; assay: Mouse ascites mammary tumor assay (6WI-1 isograft); assay type: in vivo; conditions: for Suppression of accumulation of cells and ascites fluid volume (anticancer activity): 1.0 μg peptide per day for 11 days
Experimental: The growth suppression of the mammary ascites tumor by AFP peptides and its fragments P149a, P149b and P149c, and control peptides were determined in non-estrogen dependent assays which measured tumor cell growth and ascites accumulation of 6WI-1 mammary transplanted NYLAR/nya mice. […] Tumor cell inocula included doses of 0.3, 1.0, and 3.0×10^6 cells which produced host mortality at 12-14 days which was lethal in 100% of the animals. Following peptide dose titration studies, mice inoculated with 6WI-1 mammary cells were injected with a previously-determined optimal dose of 1.0 μg peptide per day or saline for 11 days. On day 12 following inoculation, the total accumulated ascites fluid volume and tumor cells in the peritoneal cavity of each animal were harvested and the cell count determined.
Inoculation of mice with all three cell doses led to an increase in body weight from 25 g (day 0) to approximately […] by day 12, due to the accumulation of tumor cells and ascites fluid in the intraperitoneal cavity. An average cell count in accumulated ascites fluid on day 12 was greater than 10^8 cells/ml with a total ascites volume approximating 20 mls. Tumor cell proliferation in this model has been reported to correlate with the volume of ascites fluid accumulated.
The 6WI-1 mouse mammary tumor studies involving peptide and non-peptide treatment were further compared by histopathological analysis performed on hematoxylin/eosin stained tissue sections.

[2] = system: 6WI-1 mammary tumor cells; assay: 6WI-1 mammary tumor in 15-day old mouse pups (6 day assay); assay type: in vivo; set-up: % Inhibition Of Activity: 6WI-1 Pup Ascites: concentration or dose not given beside the values; conditions: mouse pups
Text: As an alternative model of the 6WI-I mammary tumor in adult mice, an inocula of 1×10^6 tumor cells injected into 15-day old mouse pups provided a 6 day rather than a 12 day assay and replicated the same tumor growth suppression by GIP.

MCF-7 cells = assay: Estrogen-dependent MCF-7 foci formation assay; assay type: cell-based, human; set-up: % Inhibition Of Activity: MCF-7 foci formation: concentration or dose not given beside the values
Text: Mizejewski et al., “Alpha-fetoprotein derived synthetic peptides: assay of an estrogen-modifying regulatory segment” Mol Cell Endocrinol 118:15-23 (1996). The P149 peptide inhibited the formation of tumor cell foci formed as a result of the accumulation of breast cancer cells which clump together due to loss of contact inhibition.

human platelets = assay: Platelet aggregation in human platelet-rich plasma; assay type: cell-based; set-up: % Inhibition Of Activity: Platelet Agg. ADP / % Inhibition Of Activity: Platelet Agg. AA / % Inhibition Of Activity: Platelet Agg. Coll: concentration or dose not given beside the values
Experimental: FIG. 9 presents exemplary data showing platelet aggregation modulation using 0.5 ml of normal human platelet-rich plasma (PRP) with varying amounts of P149 or P 149b using 2.5×10^6 platelets per reaction vessel.
FIG. 10 presents exemplary data showing platelet aggregation activation by arachidonic acid (AA) and collagen using P149-treated platelet suspensions • Panel A1: AA alone; • Panel A2: AA followed by epinephine (EPI) and EPI alone using P149b; • Panel A3: CD62P flow cytometry fluorescence quenching by P149; • Panel B1: collagen alone and collagen+P149; • Panel B2: collagen alone; collagen+P149a showing aggregation diminution.
GIP-derived peptide fragments and/or subfragments have been assayed for platelet aggregation by measuring light transmissions with an aggregometer using a stirred human platelet suspension. Kinlough-Rathbone et al., In: Platelet Aggregation in Measurements of Platelet Function, Eds. Harker L A, Zimmerman T S., Churchill Livingstone, London. pp. 64-87 (1983); and Whittle et al., “Specificity between the anti-aggregatory actions of prostacyclin, prostaglandin Eland D2 on platelets” In: Mechanisms of stimulus—response coupling in platelets, Eds. V. V. K., MacIntyre D E, Scully M F., New York and London: Plenum Press. pp. 109-115 (1985).
The ability of GIP and its fragments were individually examined for aggregation inhibition using citrated human platelet-rich plasma (PRP). The peptides were freshly dissolved in 0.15 M NaCl containing 2.5×10^6 platelets/ml. […]

[3] = system: immature mouse uterine growth; assay: E2-activated immature mouse uterine growth assay; assay type: in vivo; set-up: % Inhibition Of Activity: Uterine Growth: concentration or dose not given beside the values; conditions: mouse, in vivo
Experimental: FIG. 3 presents exemplary data showing the growth suppressive activities of the oligomeric forms of P149, cyclic versus linear, are depicted in various in vitro and in vivo models. Biological activity was determined by three growth-dependent bioassays, namely; • Panel-A and A1) an immature rodent uterine bioassay; • Panel-B and B 1) an in vitro MCF-7 foci assay; • Panel-C and C1) an in vitro tumor cell cytostatic assessment. […] See text for details. Scrambled peptide=P327. […]

[4] = system: MCF-7 and 6WI-1 tumor cells; assay: Tumor cell adhesion to ECM proteins in microtiter plates; assay type: cell-based, human, murine
Experimental: FIG. 8 presents exemplary data showing the inhibition of P149 in the cellular adhesion of cancer cells to extracellular matrix (ECM) proteins for both human MCF-7 breast cancer cells and for murine 6WI-1 ascites-adapted mammary tumor cells. The cellular adhesion assay was performed in 96-well microtiter plates (Nunc Company, Denmark, catalog #263339) and the wells were pre-coated with 100 microliters of each of the above-mentioned ECM proteins for 24 hours as previously determined. After adding tumor cells, the plates were then incubated at 37° C. for various times; while 6WI-1 cells usually required only 2-4 hours incubation for adhesion; MCF-7 cells required 24 hours for attachment following trypsinization. For both cell lines, the cell culture media contained 5% calf serum to ensure cell attachment. The plates were washed twice with Hank's Saline, fixed in 0.5 mL of 37% formaldehyde, stained with crystal violet and read at […] on a microplate reader. Inset: Using a CyQUANT® stain kit, (Hoechst Corp., Germany) the plates were first exposed to a freeze/thaw cycle at −70° C. for 24 hours and 37° C. for 10 minutes. CyQUANT® buffer solution (150 microliters) was added to each well, and the cell adhesion was measured by fluorescence spectroscopy and quantitated using an ImageQuant® plate scanner (Fluorimager 595, Molecular Dynamics, Sunnyvale, Calif.).
This attachment of GIP was a slightly weaker adhesion matrix than was gelatin, chondroitin sulfate, and poly-lysine which approximated 30-35%. Using P149, the optimal amount of peptide required to inhibit tumor cell adhesion was determined by absorbing soluble peptide (1.0 pg to 100 μg) to the walls of microtiter plates. A constant number of MCF-7 tumor cells (i.e., for example, 1×10^5) were then added to the microtiter well and adhesion quantitated by fluorescence. […] The quantitation of MCF-7 and 6WI-1 cell adhesion in the presence of peptide versus peptide-free media was then determined on ECM-coated microtiter plates using 3 μg GIP/well as a competitive inhibitor. The P149 peptide was added to the wells immediately after the cells were dispensed and then the mixture was incubated as described. The AFP peptide was capable of cell adhesion inhibition in most of the ECM proteins in both tumor cell lines. Inhibition of mouse and human tumor cell adhesion was somewhat equivalent using collagen IV, fibrinogen, fibronectin, and thrombospondin. […] Thus, the GIP was found capable of eliciting different attachment inhibitions dependent on the type of ECM protein coating the wall of the microtiter plate and also the tumor cell type involved.

Estrogen fetotoxicity = assay: Estrogen fetotoxicity; set-up: concentration or dose not given beside the values; conditions: in vivo
[5] = system: human kidney tumor cell line
[6] = system: immature mouse uterine growth; assay: E2-activated immature mouse uterine growth assay; assay type: in vivo; set-up: concentration or dose not given beside the values
[7] = system: LNCaP human prostate tumor cells; assay: Whole-cell voltage clamp of LNCaP cells; assay type: cell-based; conditions: 10 μM
Experimental: LNCaP human prostate tumor cells were cultured on 5×5 mm plastic coverslips and were transferred to a microperfusion chamber on the stage of an inverted microscope. Whole-cell voltage clamp was accomplished with an Axopatch 200B (Axon Instr. Co., Union City, Calif.) using ruptured patches. Borosilicate glass capillaries (1.2 mm OD, 0.68 ID, type EN-I, Garner Glass Co., Claremont, Calif.) were used to fabricate patch pipettes (3-8 MΩ in the bath solution) with a Brown-Flaming horizontal micropipette puller (P-87, Sutter Instruments, San Rafael, Calif.). Patch-pipette tips were heat-polished prior to use. A micromanipulator (Narishige) fixed to the microscope positioned the pipettes. Electrode capacitance and access resistance were compensated prior to measurements. All experiments will be performed at room temperature (20-22° C.). The standard extracellular salt solution for ion currents contained (in mM): 150 NaCl, 6 KCl, 1.5 CaCl2, 1 MgCl2, 10 HEPES, 10 glucose, and pH adjusted to 7.4 with 1 N NaOH. […] Electrophysiological recordings were procured and analyzed using PClamp8 software (Axon Instr. Co, Union City, Calif.) and the WinASCD software (Guy Droogmans, Katholieke Universiteit; Leuven, B E). All results were recorded on computer hard drive or on digital audio tape (DAT). […]

[8] = 6WI-1 mouse mammary ascites tumor
[9] = 1 × 10^6 tumor cells I.P., daily injections for eleven days, N = 5

What does the source list for “AADIIIGHLCIRHE (listed as Homo sapiens) [P149b]”?
Suppression of accumulation of cells and ascites fluid volume (anticancer activity) [1]: but not P149a or P149b, significantly suppressed; % Inhibition Of Activity: 6WI-1 Acites Volume [1, 8]: 26%; % Inhibition Of Activity: 6WI-1 Body Weight [1, 8]: 31%; % Inhibition Of Activity: 6WI-1 Cell Prol [1, 8]: 34%; % Inhibition Of Activity: 6WI-1 Pup Ascites [2]: 32%; % Inhibition Of Activity: MCF-7 foci formation (MCF-7 cells): 31%; Inhibition of ADP-induced platelet aggregation (FIG. 9) (human platelets; 0.5 ml PRP, 2.5×10^6 platelets per reaction vessel): 70%; Inhibition of ADP-induced platelet aggregation (human platelets; ADP 3 μM, P149 at 100-300 μM PRP): 80-90%; % Inhibition Of Activity: Platelet Agg. ADP (human platelets; ADP-induced): 95%; % Inhibition Of Activity: Platelet Agg. AA (human platelets; arachidonic acid-induced): 100%; % Inhibition Of Activity: Platelet Agg. Coll (human platelets; collagen-induced): 90%; Inhibition of arachidonic acid (AA)-induced platelet aggregation (human platelets; for several minutes until epinephrine was added): complete aggregation inhibition; Inhibition (%) Of Platelet Aggregation, Adenosine Diphosphate (ADP) 2.5 μM (human platelets; peptide inhibitors 30 & 100 μM): 95-98%; Inhibition (%) Of Platelet Aggregation, Arachidonic Acid (AA) 0.3 mM (human platelets; peptide inhibitors 30 & 100 μM): 100%; Inhibition (%) Of Platelet Aggregation, Collagen (COLL) 2 μg/ml (human platelets; peptide inhibitors 30 & 100 μM): 90%; Inhibition (%) Of Platelet Aggregation, Epinephrine (human platelets; peptide inhibitors 30 & 100 μM): No effect; % Inhibition Of Activity: Uterine Growth [3]: 22%; % Inhibition Of Activity: Cell Adhesion [4]: 58%; % Inhibition Of Activity: Estrogen Fetotoxicty (Estrogen fetotoxicity): 67%; % Inhibition Of Activity: Kidney tumor growth [5]: 50%; % Inhibition Of Activity: Uterine Growth, Enzymatic Fragments [6]: 19%

With “GINHLPSDAVGTAIEVMPCLRDGKLCIGAEHIEL (listed as Homo sapiens) [P327]” as the sequence, how does the “Suppression of accumulation of cells and ascites fluid volume (anticancer activity)” value [1] read?
The value was “totally lacked anticancer activity”.

And the “Metastatic histopathological findings: Abdominal Muscle” value [1, 9]?
Its value is “Focal tumor infiltrate”.

What about the “Metastatic histopathological findings: Gross Findings” value [1, 9] of the same sequence?
The value was “Presence of tumor”.

What about the “Metastatic histopathological findings: Kidney” value [1, 9] of the same sequence?
The value was “No infiltrate”.

And the “Metastatic histopathological findings: Liver” value [1, 9]?
Its value is “No infiltrate”.

And the “Metastatic histopathological findings: Pancreas” value [1, 9]?
The value was “Distinct presence of”.

And the “Metastatic histopathological findings: Retro-peritoneal mesentery and fat” value [1, 9]?
The value was “Extensive tumor infiltrate”.

And the “Metastatic histopathological findings: Spleen” value [1, 9]?
Its value is “No infiltrate”.

And the “Metastatic histopathological findings: Uterus + Ovary” value [1, 9]?
The value was “Tumor encased organ”.

And the “Metastatic tumor infiltration, histopathology summary” value ([1]; mouse, in vivo)?
The value was “high-to-moderate tumor infiltrates”.

What about the Whole-cell membrane current [7] of the same sequence?
Its Whole-cell membrane current is “no effect on membrane current”.
